Test results as given in patent US20070275967A1, “Pyrazolinols” (BAYER CROPSCIENCE AKTIENGESELLSCHAFT, priority 2003, published 2007).

Assay: logP determination by HPLC on reversed-phase column (EEC Directive 79/831 Annex V.A8)
Type: physicochemical
Details: acidic range (pH 2.3), marked a); 0.1% aqueous phosphoric acid/acetonitrile gradient; reversed-phase C 18; 43° C.
Experimental: The logP values given in the table were determined in accordance with EEC Directive 79/831 Annex V.A8 by HPLC (High Performance Liquid Chromatography) on a reversed-phase column (C 18). Temperature: 43° C. (a) Mobile phases for the determination in the acidic range (pH 2.3): 0.1% aqueous phosphoric acid, acetonitrile; linear gradient from 10% acetonitrile to 90% acetonitrile—the corresponding measurement results in table 1 are marked a). (b) Mobile phases for the determination in the neutral range (pH 7.5): 0.01-molar aqueous phosphate buffer solution, acetonitrile; linear gradient from 10% acetonitrile to 90% acetonitrile—the corresponding measurement results in table 1 are marked b). Calibration was carried out using unbranched alkan-2-ones (having 3 to 16 carbon atoms) with known logP values (determination of the logP values by the retention times using linear interpolation between two successive alkanones).

Structure (SMILES)	logP
CC(C)C1=NN(C(=O)Nc2ccc(Cl)cc2)C(O)(C(F)(F)F)C1 (racemic) [Example 18]	logP = 3.79^a)
CCC1=NN(C(=S)Nc2c(F)cccc2F)C(O)(C(F)(F)F)C1 (stereo not shown) [Example 84]	logP = 3.30^a)
CC(C)C1=NN(C(=O)Nc2ccccc2)C(O)(C(F)(F)F)C1 (racemic) [Example 28]	logP = 3.32^a)
CC1=NN(C(=S)NCc2ccc(Cl)c(Cl)c2)C(O)(C(F)(F)F)C1 (stereo not shown) [Example 113]	logP = 4.26^a)
CC(C)(C)C1=NN(C(=O)Nc2ccc(Cl)cc2)C(O)(C(F)(F)C(F)(F)C(F)(F)F)C1 (stereo not shown) [Example 140]	logP = 5.20^a)
Cc1ccc(NC(=S)N2N=C(C(C)(C)C)CC2(O)C(F)(F)F)cc1 (stereo not shown) [Example 62]	logP = 4.62^a)
CCC1=NN(C(=S)Nc2ccc(OC)cc2)C(O)(C(F)(F)F)C1 (stereo not shown) [Example 86]	logP = 3.47^a)
CCC1=NN(C(=S)Nc2ccccc2)C(O)(C(F)(F)F)C1 (racemic) [Example 38]	logP = 3.57^a)
CC(C)(C)C1=NN(C(=S)NCc2ccc(Cl)cc2)C(O)(C(Cl)(Cl)Cl)C1 (stereo not shown) [Example 130]	logP = 2.72^a)
CCC1=NN(C(=S)Nc2ccc(Oc3ccccc3)cc2)C(O)(C(F)(F)F)C1 (stereo not shown) [Example 88]	logP = 4.52^a)
COc1ccccc1NC(=S)N1N=C(C)CC1(O)C(F)(F)F (stereo not shown) [Example 108]	logP = 3.36^a)
O=C(Nc1ccc(Cl)cc1)N1N=C(c2ccccc2)CC1(O)C(F)(F)F (stereo not shown) [Example 82]	logP = 3.97^a)
CC(C)(C)C1=NN(C(=S)Nc2ccc(Cl)cc2)C(O)(C(Cl)(Cl)Cl)C1 (stereo not shown) [Example 129]	logP = 4.03^a)
CCC1=NN(C(=S)Nc2ccc(OC(F)(F)F)cc2)C(O)(C(F)(F)F)C1 (stereo not shown) [Example 95]	logP = 4.31^a)
CC(C)(C)C1=NN(C(=S)Nc2ccc(Cl)cc2)C(O)(C(F)(F)C(F)(F)F)C1 (stereo not shown) [Example 135]	logP = 5.19^a)
CC1=NN(C(=O)Nc2ccc(Cl)c(Cl)c2)C(O)(C(F)(F)F)C1 (stereo not shown) [Example 116]	logP = 3.84^a)

Structure (SMILES)	logP
CC(C)(C)C1=NN(C(=S)Nc2ccc(Cl)cc2)C(O)(C(F)(F)C(F)(F)C(F)(F)F)C1 (stereo not shown) [Example 138]	logP = 5.57^a)
CCC1=NN(C(=O)Nc2ccc(Cl)cc2)C(O)(C(F)(F)F)C1 (racemic) [Example 13]	logP = 3.41^a)
CCC1=NN(C(=S)Nc2cc(Cl)ccc2Cl)C(O)(C(F)(F)F)C1 (stereo not shown) [Example 85]	logP = 4.47^a)
CC(C)C1=NN(C(=O)Nc2ccc(OC(F)(F)F)cc2)C(O)(C(F)(F)F)C1 (racemic) [Example 17]	logP = 4.09^a)
CC(C)CC1=NN(C(=S)Nc2ccccc2)C(O)(C(F)(F)F)C1 (racemic) [Example 7]	logP = 4.31^a)
CC(C)C1=NN(C(=S)Nc2cccnc2)C(O)(C(F)(F)F)C1 (racemic) [Example 35]	logP = 1.96^a)
OC1(C(F)(F)F)CC(C2(Cl)CC2)=NN1C(=S)Nc1ccc(C(F)(F)F)cc1 (stereo not shown) [Example 78]	logP = 4.41^a)
CC1=NN(C(=S)Nc2cc(Cl)cc(Cl)c2)C(O)(C(F)(F)F)C1 (stereo not shown) [Example 109]	logP = 4.18^a)
CCC1=NN(C(=O)Nc2ccc(C#N)cc2)C(O)(C(F)(F)F)C1 (stereo not shown) [Example 51]	logP = 2.65^a)
CC1=NN(C(=S)Nc2cccc(F)c2)C(O)(C(F)(F)F)C1 (stereo not shown) [Example 111]	logP = 3.18^a)
COc1ccc(NC(=S)N2N=C(C)CC2(O)C(F)(F)F)cc1 (stereo not shown) [Example 102]	logP = 3.10^a)
CCC1=NN(C(=S)Nc2cccc(Cl)c2Cl)C(O)(C(F)(F)F)C1 (stereo not shown) [Example 87]	logP = 4.29^a)
CC1=NN(C(=S)Nc2ccc(C(C)(C)C)cc2)C(O)(C(F)(F)F)C1 (stereo not shown) [Example 121]	logP = 4.45^a)
CC(C)C1=NN(C(=O)Nc2ccccc2Cl)C(O)(C(F)(F)F)C1 (racemic) [Example 37]	logP = 4.10^a)
CC(C)(C)C1=NN(C(=S)NCc2ccc(Cl)cc2)C(O)(C(F)(F)C(F)(F)F)C1 (stereo not shown) [Example 132]	logP = 5.32^a)
